According to patent US10245261B2, “Substituted indol-5-ol derivatives and their therapeutic applications” (NantBioScience, Inc., priority 2013, dated 2019):

Legend:
[1] = tested on: human MIAPaCa-2 pancreatic carcinoma xenograft; test: Pancreatic carcinoma xenograft in athymic nude mice; format: in vivo, mouse; conditions: MIAPaCa-2 xenograft, nude mice, single agent
Description: The objective of the third study was to evaluate antitumor activities of novel multiple-kinase inhibitor NTW-3475 in human MIAPaCa-2 pancreatic carcinoma xenograft in athymic nude-Faxn1 mice.
Four animals were randomly assigned to study groups. Each animal was weighed, and then injected subcutaneously in the left and right flank area with 0.1 ml of 5.0×10^7 MIAPaCa-2 cells per mL.
Each test or control animal was on a 5-day on, two-day off for two cycles treatment schedule with negative control vehicle, positive control Abraxane at 20 mg/kg or 25, 50 mg/kg of NTW-3475. Tumor growth was measured with a digital hand held caliper twice weekly (once tumor emerges) prior to the first dosing and then two to three times weekly until euthanized.
The objective of the third study was to evaluate antitumor activities of novel multiple-kinase inhibitor Compound 10, 11, 12, 53, 68, 82, 83, 88, and 90 in human MIAPaCa-2 pancreatic carcinoma xenograft in athymic nude-Faxn1 mice.
Each test or control animal was on a 5-day on, two-day off for three cycles treatment schedule with negative control vehicle or 40 mg/kg of Compound 10, 11, 12, 53, 68, 82, 83, 88 and 90. Tumor growth was measured with a digital hand held caliper twice weekly (once tumor emerges) prior to the first dosing and then two to three times weekly until euthanized.

Ret(h) = Ret(h) (Homo sapiens, UniProt P07949); test: KinaseProfiler kinase assay; format: biochemical
Summary of the method: (§1)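 Steps: compound diluted from DMSO into MOPS/BSA assay buffer; MgATP mix with [γ-33P]ATP added to start; 40 min incubation at room temperature; phosphoric acid stop; filtermat spotting, washing in 50 mM phosphoric acid and methanol; scintillation counting.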

Aurora-A(h) = molecular target: T1, Aurora-A(h) (Homo sapiens, UniProt O14965); test: KinaseProfiler kinase assay; format: biochemical; conditions: read-out: % Inhibition @1 μM Auroro-A
T1 sequence (O14965 1-403): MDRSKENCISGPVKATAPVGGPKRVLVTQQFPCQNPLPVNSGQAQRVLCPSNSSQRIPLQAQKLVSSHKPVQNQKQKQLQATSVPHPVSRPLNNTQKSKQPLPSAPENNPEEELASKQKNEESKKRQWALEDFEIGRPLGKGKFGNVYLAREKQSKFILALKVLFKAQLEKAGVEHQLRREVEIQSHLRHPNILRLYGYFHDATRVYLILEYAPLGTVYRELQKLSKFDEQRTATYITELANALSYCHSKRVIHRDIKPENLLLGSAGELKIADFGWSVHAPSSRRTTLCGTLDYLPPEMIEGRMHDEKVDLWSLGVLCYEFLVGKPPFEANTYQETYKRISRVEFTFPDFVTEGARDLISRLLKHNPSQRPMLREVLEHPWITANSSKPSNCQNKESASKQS
Summary of the method: as §1

Flt3(h) = molecular target: T2, Flt3(h) (Homo sapiens, UniProt P36888); test: KinaseProfiler kinase assay; format: biochemical
T2 sequence (P36888 27-993): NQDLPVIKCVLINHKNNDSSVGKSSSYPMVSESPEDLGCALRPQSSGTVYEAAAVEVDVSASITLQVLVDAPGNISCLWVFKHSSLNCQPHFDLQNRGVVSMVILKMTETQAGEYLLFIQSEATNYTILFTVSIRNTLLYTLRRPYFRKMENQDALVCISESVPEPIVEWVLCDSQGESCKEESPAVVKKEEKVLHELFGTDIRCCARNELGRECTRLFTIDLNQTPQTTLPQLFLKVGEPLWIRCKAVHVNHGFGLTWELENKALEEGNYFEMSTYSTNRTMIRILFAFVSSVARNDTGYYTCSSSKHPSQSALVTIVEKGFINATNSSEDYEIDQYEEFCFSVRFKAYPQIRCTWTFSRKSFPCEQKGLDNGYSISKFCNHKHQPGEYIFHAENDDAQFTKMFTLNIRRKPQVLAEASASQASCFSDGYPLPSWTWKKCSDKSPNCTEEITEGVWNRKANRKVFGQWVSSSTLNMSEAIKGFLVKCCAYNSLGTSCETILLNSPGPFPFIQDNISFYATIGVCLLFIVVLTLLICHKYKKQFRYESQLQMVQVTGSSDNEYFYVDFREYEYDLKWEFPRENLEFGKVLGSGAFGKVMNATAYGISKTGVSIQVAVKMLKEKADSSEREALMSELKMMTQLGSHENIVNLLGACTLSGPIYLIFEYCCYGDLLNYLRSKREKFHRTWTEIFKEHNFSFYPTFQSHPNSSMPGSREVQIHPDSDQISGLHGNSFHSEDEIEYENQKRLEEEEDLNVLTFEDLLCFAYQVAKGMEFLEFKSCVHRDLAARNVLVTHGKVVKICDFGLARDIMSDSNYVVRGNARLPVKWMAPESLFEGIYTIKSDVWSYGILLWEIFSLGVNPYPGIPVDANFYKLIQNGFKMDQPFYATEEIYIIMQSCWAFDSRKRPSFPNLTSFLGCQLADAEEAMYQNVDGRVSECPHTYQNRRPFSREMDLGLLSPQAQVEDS
Summary of the method: as §1

cSRC(h) = cSRC(h) (Homo sapiens, UniProt P12931); test: KinaseProfiler kinase assay; format: biochemical
Summary of the method: as §1

MV4.11 = test: CellTiterBlue cell growth inhibition; format: cell-based; conditions: Homo sapiens; MV4.11, 72 hours
Description: (§2) This example illustrated the proliferating cell growth inhibition of selected compounds from this invention. To do this, the cells were seeded into fresh Iscove's growth medium at a density of 0.4e6 cells/ml and grown in log phase for 24 hr. Cells were then resuspended in their fresh respective growth media at 0.1e^6 cells/ml and plated into 384 well black, clear-bottom microplates at 36 ul/well. Test compounds and controls were initially dissolved in DMSO at the desired concentration, then serially diluted to the assay buffer. These solutions were added and cells were incubated for 72 hours at 37° C. CellTiterBlue (Promega cat# G7572) was added on the Beckman FX. Plates were returned to the 37° C. CO2 incubator for 4 hr and then fluorescence was determined on the Victor plate reader. Data were processed using Microsoft Excel, and GI50 values were generated using Prism (GraphPad Software, San Diego, Calif.).

KU812 = test: CellTiterBlue cell growth inhibition; format: cell-based; conditions: Homo sapiens; KU812, 72 hours
Description: as §2

K562 = test: CellTiterBlue cell growth inhibition; format: cell-based; conditions: Homo sapiens; K562, 72 hours
Description: as §2

RS4.11 = test: CellTiterBlue cell growth inhibition; format: cell-based; conditions: Homo sapiens; RS4.11, 72 hours
Description: as §2

Abl(h) = Abl(h) (Homo sapiens, UniProt P00519); test: KinaseProfiler kinase assay; format: biochemical
KDR(h) = KDR(h) (Homo sapiens, UniProt P35968); test: KinaseProfiler kinase assay; format: biochemical
TT = test: CellTiterBlue cell growth inhibition; format: cell-based; conditions: Homo sapiens, 72 hours
Description: as §2

AN3.CA = test: CellTiterBlue cell growth inhibition; format: cell-based; conditions: Homo sapiens, 72 hours
Description: as §2

cSRC(h), sequence (P12931 whole entry): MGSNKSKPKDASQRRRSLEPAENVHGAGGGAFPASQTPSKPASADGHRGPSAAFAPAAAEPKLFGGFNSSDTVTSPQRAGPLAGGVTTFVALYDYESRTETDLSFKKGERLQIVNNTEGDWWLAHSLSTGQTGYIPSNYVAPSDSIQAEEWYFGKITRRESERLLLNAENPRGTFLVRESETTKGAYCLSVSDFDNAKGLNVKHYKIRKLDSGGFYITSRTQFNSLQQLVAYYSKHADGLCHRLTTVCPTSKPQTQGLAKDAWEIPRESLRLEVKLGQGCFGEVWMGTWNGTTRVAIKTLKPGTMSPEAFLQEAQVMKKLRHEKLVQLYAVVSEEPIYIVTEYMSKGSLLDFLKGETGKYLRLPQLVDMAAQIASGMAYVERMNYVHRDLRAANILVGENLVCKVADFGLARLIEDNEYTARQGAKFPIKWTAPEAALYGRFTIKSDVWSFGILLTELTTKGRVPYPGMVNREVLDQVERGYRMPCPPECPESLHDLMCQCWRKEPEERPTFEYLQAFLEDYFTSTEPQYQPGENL
KDR(h), sequence (P35968 20-1356): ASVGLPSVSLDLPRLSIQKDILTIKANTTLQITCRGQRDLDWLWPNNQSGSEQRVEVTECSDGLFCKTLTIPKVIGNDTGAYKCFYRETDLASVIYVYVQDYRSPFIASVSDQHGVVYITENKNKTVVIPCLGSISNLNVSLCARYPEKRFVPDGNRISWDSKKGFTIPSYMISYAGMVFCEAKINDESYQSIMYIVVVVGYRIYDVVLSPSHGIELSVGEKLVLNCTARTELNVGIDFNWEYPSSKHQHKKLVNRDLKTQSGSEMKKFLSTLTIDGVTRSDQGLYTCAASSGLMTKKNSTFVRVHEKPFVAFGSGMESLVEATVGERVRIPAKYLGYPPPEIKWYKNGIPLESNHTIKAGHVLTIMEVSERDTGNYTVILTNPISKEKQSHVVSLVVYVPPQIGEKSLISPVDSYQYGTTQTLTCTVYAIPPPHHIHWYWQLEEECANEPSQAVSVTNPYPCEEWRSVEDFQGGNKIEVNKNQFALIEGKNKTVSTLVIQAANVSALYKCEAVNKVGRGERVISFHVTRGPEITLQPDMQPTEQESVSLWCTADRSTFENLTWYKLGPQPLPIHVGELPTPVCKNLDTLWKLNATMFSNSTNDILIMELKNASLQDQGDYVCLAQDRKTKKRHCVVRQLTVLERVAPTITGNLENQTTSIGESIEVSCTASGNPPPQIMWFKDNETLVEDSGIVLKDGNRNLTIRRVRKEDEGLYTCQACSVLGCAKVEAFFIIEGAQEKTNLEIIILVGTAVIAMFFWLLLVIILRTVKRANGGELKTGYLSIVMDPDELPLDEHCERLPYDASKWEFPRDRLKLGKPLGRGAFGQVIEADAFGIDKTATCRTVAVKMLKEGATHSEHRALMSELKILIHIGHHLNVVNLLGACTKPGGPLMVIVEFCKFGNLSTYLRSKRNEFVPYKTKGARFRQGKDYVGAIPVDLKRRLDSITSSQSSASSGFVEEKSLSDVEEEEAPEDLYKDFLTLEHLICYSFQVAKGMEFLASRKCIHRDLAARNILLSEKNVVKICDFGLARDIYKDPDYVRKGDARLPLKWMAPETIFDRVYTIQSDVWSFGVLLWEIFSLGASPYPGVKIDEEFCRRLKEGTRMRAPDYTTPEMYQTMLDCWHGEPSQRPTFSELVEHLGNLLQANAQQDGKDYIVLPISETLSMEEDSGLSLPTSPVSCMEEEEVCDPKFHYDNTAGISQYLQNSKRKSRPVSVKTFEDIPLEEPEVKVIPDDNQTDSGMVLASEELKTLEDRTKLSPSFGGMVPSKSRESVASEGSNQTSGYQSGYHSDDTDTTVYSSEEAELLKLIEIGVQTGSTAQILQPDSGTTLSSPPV
Ret(h), sequence (P07949 29-1114): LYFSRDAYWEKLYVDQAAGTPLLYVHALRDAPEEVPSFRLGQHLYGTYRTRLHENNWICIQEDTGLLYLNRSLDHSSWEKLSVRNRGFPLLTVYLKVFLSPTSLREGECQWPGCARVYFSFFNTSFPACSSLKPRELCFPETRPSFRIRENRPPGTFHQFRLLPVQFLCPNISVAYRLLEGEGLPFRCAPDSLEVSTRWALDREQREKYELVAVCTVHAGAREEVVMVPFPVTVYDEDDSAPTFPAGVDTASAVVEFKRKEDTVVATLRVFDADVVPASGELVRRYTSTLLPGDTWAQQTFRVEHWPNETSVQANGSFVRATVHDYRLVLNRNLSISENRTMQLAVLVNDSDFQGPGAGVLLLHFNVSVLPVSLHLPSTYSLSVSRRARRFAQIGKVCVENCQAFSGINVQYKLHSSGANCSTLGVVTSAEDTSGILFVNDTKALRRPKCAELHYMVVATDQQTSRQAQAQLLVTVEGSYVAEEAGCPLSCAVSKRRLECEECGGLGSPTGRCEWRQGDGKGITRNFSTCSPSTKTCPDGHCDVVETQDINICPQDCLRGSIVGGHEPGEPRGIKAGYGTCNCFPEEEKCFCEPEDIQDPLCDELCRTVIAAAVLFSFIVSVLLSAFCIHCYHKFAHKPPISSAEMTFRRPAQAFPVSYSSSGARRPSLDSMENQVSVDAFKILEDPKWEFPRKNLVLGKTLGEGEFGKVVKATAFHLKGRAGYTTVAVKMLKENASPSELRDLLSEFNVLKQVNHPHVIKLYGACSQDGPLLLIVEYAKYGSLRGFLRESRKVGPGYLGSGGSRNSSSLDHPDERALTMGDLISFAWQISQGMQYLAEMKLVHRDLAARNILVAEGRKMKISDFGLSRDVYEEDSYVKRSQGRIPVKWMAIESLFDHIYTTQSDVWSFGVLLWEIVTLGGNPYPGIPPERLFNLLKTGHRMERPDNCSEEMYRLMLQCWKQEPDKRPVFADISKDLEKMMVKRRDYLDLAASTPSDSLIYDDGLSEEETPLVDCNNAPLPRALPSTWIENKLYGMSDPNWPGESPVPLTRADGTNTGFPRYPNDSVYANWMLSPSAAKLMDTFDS
Abl(h), sequence (P00519 whole entry): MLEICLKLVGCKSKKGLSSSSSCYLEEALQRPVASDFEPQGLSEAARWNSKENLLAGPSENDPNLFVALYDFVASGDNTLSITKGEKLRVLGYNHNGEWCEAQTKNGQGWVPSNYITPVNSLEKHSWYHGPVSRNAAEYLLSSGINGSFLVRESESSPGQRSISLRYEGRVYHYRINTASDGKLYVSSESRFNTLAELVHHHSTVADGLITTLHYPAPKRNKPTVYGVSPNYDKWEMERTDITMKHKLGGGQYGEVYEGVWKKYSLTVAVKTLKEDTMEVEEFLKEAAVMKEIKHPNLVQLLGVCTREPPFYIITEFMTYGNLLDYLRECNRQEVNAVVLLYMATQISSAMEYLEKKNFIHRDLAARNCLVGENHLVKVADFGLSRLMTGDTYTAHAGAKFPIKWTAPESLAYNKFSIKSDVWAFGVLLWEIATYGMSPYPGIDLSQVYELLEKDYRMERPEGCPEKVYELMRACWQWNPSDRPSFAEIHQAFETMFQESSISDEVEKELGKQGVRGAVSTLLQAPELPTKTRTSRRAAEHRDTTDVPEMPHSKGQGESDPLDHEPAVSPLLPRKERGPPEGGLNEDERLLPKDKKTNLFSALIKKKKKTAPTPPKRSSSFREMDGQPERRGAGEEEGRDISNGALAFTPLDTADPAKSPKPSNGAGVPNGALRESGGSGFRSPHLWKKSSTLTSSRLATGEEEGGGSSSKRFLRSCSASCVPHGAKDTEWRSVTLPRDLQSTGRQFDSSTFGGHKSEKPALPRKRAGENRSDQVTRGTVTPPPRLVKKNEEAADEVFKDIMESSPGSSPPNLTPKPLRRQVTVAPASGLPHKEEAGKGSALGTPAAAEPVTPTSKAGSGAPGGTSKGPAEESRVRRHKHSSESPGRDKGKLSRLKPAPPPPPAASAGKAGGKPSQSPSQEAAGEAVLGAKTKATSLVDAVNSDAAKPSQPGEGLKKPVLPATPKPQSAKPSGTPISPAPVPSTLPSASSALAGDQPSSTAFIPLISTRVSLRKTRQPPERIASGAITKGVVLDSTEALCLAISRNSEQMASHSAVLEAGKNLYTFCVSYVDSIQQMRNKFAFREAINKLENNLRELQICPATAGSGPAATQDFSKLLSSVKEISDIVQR

Structure (SMILES) | anti-tumor effect [1] | inhibition at 1 µM (Ret(h)) [%] | inhibition at 1 µM (Aurora-A(h)) [%] | inhibition at 1 µM (Flt3(h)) [%] | inhibition at 1 µM (cSRC(h)) [%] | GI50 (MV4.11) [nM] | GI50 (KU812) [nM] | GI50 (K562) [nM] | GI50 (RS4.11) [nM] | inhibition at 1 µM (Abl(h)) [%] | inhibition at 1 µM (KDR(h)) [%] | GI50 (TT) [nM] | GI50 (AN3.CA) [nM]
Cc1cc2c(F)c(Oc3nc(Nc4cc(C5CC5)[nH]n4)cc(N4CCN(CCO)CC4)n3)cc(F)c2[nH]1 [Compound 83] | strong anti-tumor effect | 101 | 100 | 99 | 99 | 0.4 | 0.67 | 0.55 | 3.3 | 110 | 96 |  | 
C/C=C/c1cc(Nc2cc(N3CCNCC3)nc(Oc3cc(F)c4[nH]c(C)cc4c3F)n2)n[nH]1 [Compound 90] | strong anti-tumor effect | 99 | 100 | 100 | 101 | 0.13 | 0.9 | 0.85 | 5.07 | 112 | 95 | 3.8 | 2
